Measurements: PubChem BioAssay (NCI)
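Cultured in 96-well plates, cells were exposed to test compound for 48 hours across five concentrations. GI50 is the concentration that inhibits growth by half. The concentration for full growth arrest is given as TGI.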 Where a SMILES comes first, the peptide text is derived from it. Bridges are numbered along the chain shown (N, C = ends). [ ]: non-standard residue; d: D form. The star is where a group is joined. ξ: configuration not given here. ξDab(CH2SO3H) = NC(CCNCS(=O)(=O)O)C(=O)O; Heptanoyl(6-Me) = CC(C)CCCCC(=O)*; Dab = NCC[CH](N)C(=O)O

Key:
Assay in all cases: NCI anticancer screen, dose series, 48 h
[1] = tested on: OVCAR-4 ovarian
[2] = tested on: A549 NSCLC
[3] = tested on: MALME-3M melanoma
[4] = tested on: UACC-257 melanoma
[5] = tested on: HCT-15 colon
[6] = tested on: HOP-92 NSCLC
[7] = tested on: UACC-62 melanoma
[8] = tested on: SK-MEL-28 melanoma
[9] = tested on: CAKI-1 renal
[10] = tested on: NCI/ADR-RES ovarian

| SMILES | TGI [1] [µM] | TGI [2] [µM] | TGI [3] [µM] | TGI [4] [µM] | TGI [5] [µM] | TGI [6] [µM] | TGI [7] [µM] | TGI [8] [µM] | TGI [9] [µM] | GI50 [1] [µM] | GI50 [10] [µM] | TGI [10] [µM] | GI50 [2] [µM] | GI50 [3] [µM] | GI50 [4] [µM] | GI50 [5] [µM] | GI50 [7] [µM] | GI50 [8] [µM] | GI50 [9] [µM] |
| --- | --- | --- | --- | --- | --- | --- | --- | --- | --- | --- | --- | --- | --- | --- | --- | --- | --- | --- | --- |
| CCC(O)C1Cc2c(C)cc3c(c2O1)C(=O)c1ccccc1C3=O (stereo not drawn) | > 100 | > 100 | 88.6 | > 100 | > 100 | 97.1 | > 100 | > 100 | > 100 |  |  |  |  |  |  |  |  |  |  |
| CCC(C)C1NC(=O)C(CCNCS(=O)(=O)O)NC(=O)C(NC(=O)C(CCNCS(=O)(=O)O)NC(=O)C(NC(=O)C(CCNCS(=O)(=O)O)NC(=O)CCCCC(C)C)C(C)O)CCNC(=O)C(C(C)O)NC(=O)C(CCNCS(=O)(=O)O)NC(=O)C(CCNCS(=O)(=O)O)NC(=O)C(C(C)CC)NC1=O (stereo not drawn) ({Heptanoyl(6-Me)}-[ξDab(CH2SO3H)]T[ξDab(CH2SO3H)][Dab][ξDab(CH2SO3H)]II[ξDab(CH2SO3H)][ξDab(CH2SO3H)]T; lactam 4-C; configuration not given here) | > 25 | > 25 | > 25 | > 25 | > 25 |  | > 25 | > 25 | > 25 | 11.3 | > 25 | > 25 | > 25 | > 25 | 11.7 | > 25 | 7.44 | 2.72 | > 25 |
| CCOC(=O)NC/C=C/COC1CCCCO1 (stereo not drawn) | > 100 | > 100 | > 100 | > 100 | > 100 |  | > 100 | > 100 | > 100 |  |  |  |  |  |  |  |  |  |  |
| COc1cc(O)c2c(c1)O[C@@H]1OCC[C@H]21 | > 100 | > 100 | > 100 | > 100 | > 100 | > 100 | > 100 | > 100 |  |  |  |  |  |  |  |  |  |  |  |
| COc1ccc(NC(=O)CC/C(CC(=O)c2ccco2)=N/NC(N)=S)cc1 | > 100 | > 100 | > 100 | > 100 | > 100 | > 100 | > 100 |  | > 100 |  |  |  |  |  |  |  |  |  |  |
| COc1ccc(Sc2nc3cc(N)cc(N)c3nc2-c2ccccc2)cc1 |  | > 100 | 95 | > 100 |  |  | > 100 | > 100 | > 100 |  | > 100 | > 100 | 42.4 | 33.2 | 43.2 |  | 38 | 24.4 | 9.71 |
| Nc1nc(Cl)cc(NCC(O)CO)n1 (stereo not drawn) | > 100 | > 100 | > 100 | > 100 | > 100 | > 100 | > 100 | > 100 |  |  |  |  |  |  |  |  |  |  |  |
| COc1cc2c(cc1OC)CC(=O)Nc1cc(OC)c(OC)cc1CC2 | > 100 | > 100 | 99 | > 100 | > 100 | > 100 | > 100 | > 100 | > 100 |  |  |  |  |  |  |  |  |  |  |
| N#CCCCCCOCCOCCOCCOCCOCCCCCC#N | > 100 | > 100 | > 100 | > 100 | > 100 |  | > 100 | > 100 | > 100 |  |  |  |  |  |  |  |  |  |  |
| O=C(c1ccccc1)C(c1ccccc1)C1(O)C(=O)Nc2ccc([N+](=O)[O-])cc21 (stereo not drawn) | > 100 | > 100 | > 100 |  | > 100 | > 100 | > 100 | > 100 | > 100 |  |  |  |  |  |  |  |  |  |  |
